Patent publication US6696433B2, “Use of sex steroids function modulators to treat wounds and fibrotic disorders” (Renovo Limited, priority 1996, dated 2004)

Assays:
[1] = tested on: wound repair; test: Supplementation of individuals with DHEA, wound healing in the aged; format: in vivo
[2] = tested on: full thickness incisional wounds; test: Incisional wound healing in OVX and sham rats, histology at day 7 post-wounding; format: in vivo, Female Sprague Dawley rats; design: key to NEW COLLAGEN / CELLS: + = little/few; ++++ = lots); key to EPITHELIALISATION: Y = epithelialised
Excerpt: Female Sprague Dawley rats were housed together in three groups (1A, 1B and 1C) of nine to allow for synchronised oestrus cycling. Group 1A were ovariectomised (OVX) 18 days prior to wounding to allow circulating sex hormone levels to be eliminated. Group 1B (control) were untreated and Group 1C had the same operative procedure as the OVX (Group 1A), but without the removal of the ovaries, to ensure that the OVX operative procedure had no effect on the wounding studies (sham).
17 β-oestradiol (Sigma) was prepared as sterile 0.1% and 1% solutions in phosphate buffered saline (PBS) containing 0.1% and 1% 2-hydroxypropyl-β-cyclodextrin respectively, 2-hydroxypropyl-β-cyclodextrin is used in preparations as a carrier molecule to increase the water solubility of β-oestradiol. PBS/cyclodextrin was used as a vehicle control.
Animals from Groups 1A, 1B and 1C were given 4×1 cm length full thickness incisional wounds at 4.5-5.5 cm and 7.5-8.5 cm below the base of the skull, 1 cm either side of the midline. A single 100 μl intradermal injection was then given at each of the four wound sites. Each of the wounds (a total of 36 wounds on 9 rats in each group) received either 100 μl of oestradiol (0.1% or 1%), 100 μl of vehicle control (0.1% or 1% cyclodextrin) or was left unmanipulated (no injection).
The wounds were allowed to heal for 7 days after which the wounded tissue was excised for histological analysis.
7 μm paraffin-embedded sections were stained with H&E and Masson's Trichrome. The rate of re-epithelialisation (at day 7 post-wounding), and wound sizes as determined by planimetry, were determined with image analysis using an Olympus Vanox camera and PC image capture system. Collagen quantity within the wound was determined by two observers blinded to the identity of the specimen.

[3] = tested on: 4 mm punch biopsy wounds of the upper inner arm; test: Topical oestrogen patch clinical trial of wound healing in elderly men and women; format: in vivo, human; conditions: patch applied to the wound for 24 hours post-wounding
Method: Approval for this study was given by the local Ethics Committee. Forty health-status defined volunteers split into four groups: (i) GROUP 3A comprised ten women with mean age 76.3 yr (Sd 5.6) who received oestrogen supplements (25 μg/24 hrs of oestradiol) (ii) GROUP 3B comprised ten women with mean age 72.5 yr (Sd 7.1) who received placebo instead of oestrogen. (iii) GROUP 3C comprised ten men with mean age 69.6 yr (Sd 3.6) who received oestrogen supplements (ii) GROUP 3D comprised ten men with mean age 71.8 yr (Sd 8.9) who received placebo instead of oestrogen. After informed consent subjects from each of Groups 3A, 3B, 3C and 3D underwent two 4 mm punch biopsies from the upper inner arm (a non sun-exposed site) following local infiltration with 1 ml 1% lignocaine. Each biopsy of normal skin was bisected and one-half embedded in Optimal Cutting Temperature compound (Miles Inc. Elkhart, Ind.), frozen over liquid nitrogen, and stored at −70° C., and one-half snap-frozen in liquid nitrogen and stored at −70° C. The area for biopsy was covered by a 2×3 cm patch (placebo Groups 3B and 3D or active oestradiol 3A and 3C) through which the biopsies were made. The patch was covered by a Multisorb dry gauze dressing (Smith & Nephew) and both were removed after 24 hrs. The active patches contained sufficient oestradiol such that the wound sites were exposed to 25 μg/24 hrs of oestradiol. Five subjects from Groups 3A, 3B, 3C and 3D underwent re-excision of the wounds at day 7 post-wounding, and the other five subjects from each group at day 84 post-wounding. The left upper inner arm was cleaned with isopropyl alcohol, elliptical excisions of the wounds were made following 1% lignocaine infiltration and two sutures were used to close the gap. Each wound was bisected and processed as described above (3.1.3). 7 μm paraffin-embedded sections were strained with H&E and Masson's Trichrome. The rate of re-epithelialisation (at day 7 post-wounding), and wound sizes as determined by planimetry, were determined with image analysis using an Olympus Vanox camera and PC image capture system. Collagen quantity within the wound was determined by two observers blinded to the identity of the specimen on the following scale +=minimal quantities; ++=less than normal skin; +++=similar to normal skin; ++++=greater than normal skin. The wound stiffness at day 80 was determined using the non-disruptive Dimensional Analysis System (Das). Previous studies have correlated wound breaking strength values (ultimate pressure at failure) to wound stiffness using this system. The system applies a multiaxial load (negative pressure) to the wound and measures the deformation due to the load of two reflective targets placed at the wound edges, using a high resolution camera and video processor. Pressure was applied to a maximum of 100 mmHg and then released, Stiffness was measured between 20 and 80 mmHg.

[4] = 0.1% oestradiol with 0.1% cyclodextrin vehicle, single 100 μl intradermal injection, OVX rats
[5] = 0.1% oestradiol with 0.1% cyclodextrin vehicle, single 100 μl intradermal injection, SHAM rats
[6] = 1% oestradiol with 1% cyclodextrin vehicle, single 100 μl intradermal injection, OVX rats
[7] = 1% oestradiol with 1% cyclodextrin vehicle, single 100 μl intradermal injection, SHAM rats

SMILES	rate of wound repair [1]	CELLS [2, 4]	EPITHELIALISATION [2, 4]	NEW COLLAGEN [2, 4]	WOUND WIDTH [2, 4]	EPITHELIALISATION [2, 5]	WOUND WIDTH [2, 5]	EPITHELIALISATION [2, 6]	WOUND WIDTH [2, 6]	EPITHELIALISATION [2, 7]	WOUND WIDTH [2, 7]	rate of wound healing ([2]; 1% β-oestradiol, OVX group wounds, compared to control PBS treated and unmanipulated wounds)	rate of wound healing ([2]; single application of 0.1% β-oestradiol, OVX wounds, compared to control wounds)	rate at which the wound heals [3]
C[C@]12CC[C@H](O)CC1=CC[C@@H]1[C@@H]2CC[C@]2(C)C(=O)CC[C@@H]12 [DHEA, Dehydroepiandrosterone]	stimulating the rate of wound repair													
C[C@]12CC[C@@H]3c4ccc(O)cc4CC[C@H]3[C@@H]1CC[C@@H]2O [OESTRADIOL, 17 β-oestradiol]		+	Y	++++	narrow	Y	narrow	Y	narrow	Y	wide	increased rate of wound healing	accelerated wound healing	sufficient to improve the rate at which the wound heals
